Test results: patent US9902696B2, “1,4-substituted piperidine derivatives” (Cephalon, Inc., priority 2015, dated 2018)
Structures can show the parent of a compound that is named as a salt.

biological target: T1, recombinant human baculovirus-expressed GST-tagged FASN (Homo sapiens, UniProt P49327); experiment: FASN enzyme activity assay, fluorescence-based detection of CoA with CPM; assay type: biochemical; details: 5 nM FASN, 150 μM NADPH, 10 μM acetyl-CoA, 25 μM malonyl-CoA, 90 minutes incubation; read-out: IC50 data for Additional Compounds of Formulae I-V(a): Activity
T1 construct: GST
Procedure, shortened: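 CoA product reacted with thiol-reactive CPM (diluted to 50 μM in 70% ethanol), read at 390/530 nm after 30 min. Preceding reaction: 90 min, 5 nM recombinant GST-FASN, 150 μM NADPH, 10 μM acetyl-CoA, 25 μM malonyl-CoA, pH 7.5 HEPES, 0.5% DMSO. IC50s fitted by nonlinear sigmoidal regression.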

T1 sequence (P49327 whole entry): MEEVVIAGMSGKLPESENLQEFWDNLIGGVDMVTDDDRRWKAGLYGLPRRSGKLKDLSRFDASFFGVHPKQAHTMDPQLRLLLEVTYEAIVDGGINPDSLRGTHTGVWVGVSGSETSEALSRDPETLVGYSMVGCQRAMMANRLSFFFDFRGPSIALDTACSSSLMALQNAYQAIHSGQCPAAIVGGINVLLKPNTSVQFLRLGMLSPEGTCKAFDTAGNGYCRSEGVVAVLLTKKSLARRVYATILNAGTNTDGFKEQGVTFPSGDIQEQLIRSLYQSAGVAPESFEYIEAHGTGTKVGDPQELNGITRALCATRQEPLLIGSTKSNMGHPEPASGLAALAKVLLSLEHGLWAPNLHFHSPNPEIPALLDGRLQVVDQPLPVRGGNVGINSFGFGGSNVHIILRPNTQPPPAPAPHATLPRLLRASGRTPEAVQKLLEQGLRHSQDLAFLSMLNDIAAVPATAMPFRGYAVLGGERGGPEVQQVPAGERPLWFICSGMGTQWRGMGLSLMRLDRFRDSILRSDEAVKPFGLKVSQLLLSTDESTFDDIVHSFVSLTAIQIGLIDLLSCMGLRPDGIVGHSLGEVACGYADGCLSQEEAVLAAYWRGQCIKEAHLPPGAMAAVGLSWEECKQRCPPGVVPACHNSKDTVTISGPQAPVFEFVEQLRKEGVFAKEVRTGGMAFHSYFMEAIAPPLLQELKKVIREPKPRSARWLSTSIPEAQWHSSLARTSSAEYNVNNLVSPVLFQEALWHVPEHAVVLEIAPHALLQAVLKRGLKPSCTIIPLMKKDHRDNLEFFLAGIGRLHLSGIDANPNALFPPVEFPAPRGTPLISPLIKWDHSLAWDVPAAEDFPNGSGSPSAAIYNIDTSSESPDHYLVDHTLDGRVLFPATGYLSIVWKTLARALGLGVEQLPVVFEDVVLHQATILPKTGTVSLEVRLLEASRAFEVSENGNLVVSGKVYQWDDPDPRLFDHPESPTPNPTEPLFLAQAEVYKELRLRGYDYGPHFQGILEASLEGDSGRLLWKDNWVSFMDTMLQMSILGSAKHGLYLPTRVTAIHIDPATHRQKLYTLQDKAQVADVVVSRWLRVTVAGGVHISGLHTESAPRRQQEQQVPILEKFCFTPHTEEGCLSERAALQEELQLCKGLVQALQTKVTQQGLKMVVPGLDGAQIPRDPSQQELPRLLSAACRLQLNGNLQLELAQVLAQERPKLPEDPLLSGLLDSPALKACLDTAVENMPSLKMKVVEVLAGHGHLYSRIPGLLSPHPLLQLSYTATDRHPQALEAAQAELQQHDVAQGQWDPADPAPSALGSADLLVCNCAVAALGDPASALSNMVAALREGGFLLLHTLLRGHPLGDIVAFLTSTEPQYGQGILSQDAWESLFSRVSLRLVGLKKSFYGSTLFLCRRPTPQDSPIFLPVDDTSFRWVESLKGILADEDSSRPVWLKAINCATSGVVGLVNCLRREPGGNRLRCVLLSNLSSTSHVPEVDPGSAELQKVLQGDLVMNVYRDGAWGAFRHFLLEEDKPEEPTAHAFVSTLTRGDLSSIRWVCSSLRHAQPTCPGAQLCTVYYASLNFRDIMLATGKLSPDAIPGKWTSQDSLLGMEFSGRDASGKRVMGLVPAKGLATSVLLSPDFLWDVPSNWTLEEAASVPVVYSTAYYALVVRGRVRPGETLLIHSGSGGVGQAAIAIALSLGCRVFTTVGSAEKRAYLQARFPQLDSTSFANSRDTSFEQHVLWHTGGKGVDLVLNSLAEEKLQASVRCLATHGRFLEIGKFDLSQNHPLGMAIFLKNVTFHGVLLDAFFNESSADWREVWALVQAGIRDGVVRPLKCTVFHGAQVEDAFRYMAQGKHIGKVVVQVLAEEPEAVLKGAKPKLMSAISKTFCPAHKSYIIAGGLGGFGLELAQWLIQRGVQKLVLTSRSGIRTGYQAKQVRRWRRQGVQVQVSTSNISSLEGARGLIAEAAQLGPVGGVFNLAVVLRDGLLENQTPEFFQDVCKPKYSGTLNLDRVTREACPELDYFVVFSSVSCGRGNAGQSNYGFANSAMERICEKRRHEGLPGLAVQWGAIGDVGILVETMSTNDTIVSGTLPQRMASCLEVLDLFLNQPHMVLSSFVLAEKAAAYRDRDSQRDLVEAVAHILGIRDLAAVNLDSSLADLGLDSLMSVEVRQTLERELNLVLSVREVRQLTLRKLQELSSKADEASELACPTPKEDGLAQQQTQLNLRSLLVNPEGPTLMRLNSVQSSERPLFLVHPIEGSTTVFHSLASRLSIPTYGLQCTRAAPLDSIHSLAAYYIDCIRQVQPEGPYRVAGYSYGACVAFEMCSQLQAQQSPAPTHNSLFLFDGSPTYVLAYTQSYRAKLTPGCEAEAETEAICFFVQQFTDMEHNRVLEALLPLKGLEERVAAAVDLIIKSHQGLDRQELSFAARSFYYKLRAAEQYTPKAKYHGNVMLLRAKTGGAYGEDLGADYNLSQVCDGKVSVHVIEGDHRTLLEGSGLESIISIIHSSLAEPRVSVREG

| IC50 | Compound |
| --- | --- |
| 1000 to 10000 nM | Cc1c(-c2ccc(OC3CCN(C(=O)N4CCN(C(C)C)CC4)CC3)cc2)ccc2cccnc12 [Example 532, (4-Isopropylpiperazin-1-yl)-[4-[4-(8-methyl-7-quinolyl)phenoxy]-1-piperidyl]methanone, HCl] |
| 1000 to 10000 nM | Cc1c(-c2ccc(OC3CCN(C(N)=O)CC3)cc2)ccc2nccn12 [Example 615, 4-[4-(5-Methylimidazo[1,2-a]pyridin-6-yl)phenoxy]piperidine-1-carboxamide] |
| 1 to 99 nM | Cc1c(-c2ccc(OC3CCN(C(=O)NCC(C)C)CC3)cc2)ccc2cccnc12 [Example 541, N-Isobutyl-4-[4-(8-methyl-7-quinolyl)phenoxy]piperidine-1-carboxamide, HCl] |
| 1000 to 10000 nM | Cc1c(-c2ccc(OC3CCN(C(=O)N4CCCCCC4)CC3)cc2)ccc2cccnc12 [Example 562, Azepan-1-yl-[4-[4-(8-methyl-7-quinolyl)phenoxy]-1-piperidyl]methanone] |

same assay, conditions: 5 nM FASN, 150 μM NADPH, 10 μM acetyl-CoA, 25 μM malonyl-CoA, 90 minutes incubation; read-out: IC50 data for Compounds of Formulae I-V/V(a): Activity

| IC50 | Compound |
| --- | --- |
| 100 to 999 nM | O=C(C1CC1)N1CCC(Oc2ccc(-c3ccc4cccnc4c3O)cc2)CC1 [Example 189, Cyclopropyl-{4-[4-(8-hydroxyquinolin-7-yl)-phenoxy]-piperidin-1-yl}-methanone, HCl] |
| 1000 to 10000 nM | N#CCC(=O)N1CCC(Oc2ccc(-c3cnc4ccccc4c3)cc2)CC1 [Example 218, 3-Oxo-3-[4-(4-quinolin-3-yl-phenoxy)-piperidin-1-yl]-propionitrile] |
| 1 to 99 nM | CCNC(=O)N1CCC(Oc2ccc(-c3cnc4ccccc4c3C)cc2)CC1 [Example 84, 4-[4-(4-Methylquinolin-3-yl)-phenoxy]-piperidine-1-carboxylic acid ethylamide] |
| 1000 to 10000 nM | Cc1c(-c2ccc(OC3CCN(C(=O)C(C)(C)O)CC3)cc2)ccc2nccn12 [Example 310, 2-Hydroxy-2-methyl-1-{4-[4-(5-methyl-imidazo[1,2-a]pyridin-6-yl)-phenoxy]-piperidin-1-yl}-propan-1-one] |
| 1 to 99 nM | CC1(C(=O)N2CCC(Oc3ccc(-c4cnc5ccccc5c4)cc3)CC2)OCCO1 [Example 116, (2-Methyl-1,3-dioxolan-2-yl)-[4-(4-quinolin-3-yl-phenoxy)-piperidin-1-yl]-methanone, HCl] |
| 1000 to 10000 nM | CCC(=O)N1CCC(Oc2ccc(-c3cnc4ccccc4c3)cc2C)CC1 [Example 212, 1-[4-(2-Methyl-4-quinolin-3-yl-phenoxy)-piperidin-1-yl]-propan-1-one] |
| 1000 to 10000 nM | CS(=O)(=O)CC(=O)N1CCC(Oc2ccc(-c3cnc4ccccc4c3)cc2)CC1 [Example 117, 2-Methanesulfonyl-1-[4-(4-quinolin-3-yl-phenoxy)-piperidin-1-yl]-ethanone, HCl] |
| 1 to 99 nM | CCC(=O)N1CCC(Oc2ccc(-c3ccc4ccccc4c3)cc2)CC1 [Example 10, 1-[4-(4-Naphthalen-2-yl-phenoxy)-piperidin-1-yl]-propan-1-one] |
| 1000 to 10000 nM | CCC(=O)N1CCC(Oc2ccc(-c3cnc4ccccc4c3)nc2)CC1 [Example 140, 1-[4-(6-Quinolin-3-yl-pyridin-3-yloxy)-piperidin-1-yl]-propan-1-one, 2HCl] |
| 1000 to 10000 nM | O=C(C1CC1)N1CCC(Oc2ccc(-c3ccc(Oc4ccccc4)cc3)cc2)CC1 [Example 509, Cyclopropyl-[4-(4′-phenoxybiphenyl-4-yloxy)-piperidin-1-yl]-methanone] |
| 1 to 99 nM | O=C(C1CCC1)N1CCC(Oc2ccc(-c3cnc4ccccc4c3Cl)cc2)CC1 [Example 49, {4-[4-(4-Chloroquinolin-3-yl)-phenoxy]-piperidin-1-yl}-cyclobutyl-methanone] |
| 1000 to 10000 nM | O=C(C1CC1)N1CCC(Oc2ccc(-c3ccc4cccnc4c3)nc2)CC1 [Example 146, Cyclopropyl-[4-(6-quinolin-7-yl-pyridin-3-yloxy)-piperidin-1-yl]-methanone, 2HCl] |
| 1000 to 10000 nM | CC(C)C(=O)N1CCC(Oc2ccc(-c3cncc(-c4ccccc4)c3)cc2)CC1 [Example 383] |
| 100 to 999 nM | CCC(=O)N1CCC(Oc2ccc(-c3ccc4cccnc4c3C#N)cc2)CC1 [Example 330, 7-[4-(1-Propionyl-piperidin-4-yloxy)-phenyl]-quinoline-8-carbonitrile] |
| 1000 to 10000 nM | COc1cc2ncc(-c3ccc(OC4CCN(C(=O)[C@H]5CCCO5)CC4)cc3)cc2cc1Cl [Example 449, {4-[4-(6-Chloro-7-methoxyquinolin-3-yl)-phenoxy]-piperidin-1-yl}-(R)-tetrahydrofuran-2-yl-methanone] |
| 100 to 999 nM | CCC(=O)N1CCC(Oc2ccc(-c3cnc4c(OC)cccc4c3)cc2)CC1 [Example 57, 1-{4-[4-(8-Methoxyquinolin-3-yl)-phenoxy]-piperidin-1-yl}-propan-1-one] |
| 1 to 99 nM | COc1cc(-c2ccc(OC3CCN(C(=O)C4CCC4)CC3)cc2)cn2nccc12 [Example 412, Cyclobutyl-{4-[4-(4-methoxypyrazolo[1,5-a]pyridin-6-yl)-phenoxy]-piperidin-1-yl}-methanone, HCl] |
| 1 to 99 nM | Cc1c(-c2ccc(OC3CCN(C(=O)[C@H]4CCCO4)CC3)cc2)ccc2ncnn12 [Example 311, {4-[4-(5-Methyl-[1,2,4]triazolo[1,5-a]pyridin-6-yl)-phenoxy]-piperidin-1-yl}-(R)-tetrahydrofuran-2-yl-methanone] |

| IC50 | Compound |
| --- | --- |
| 1 to 99 nM | O=C([C@H]1CCCO1)N1CCC(Oc2ccc(-c3cnc4cc(F)ccc4c3)cc2)CC1 [Example 479, {4-[4-(7-Fluoroquinolin-3-yl)-phenoxy]-piperidin-1-yl}-(R)-tetrahydro-furan-2-yl-methanone] |
| 1000 to 10000 nM | O=C(C1CC1)N1CCC(Nc2ccc(-c3cnc4ccccc4c3)cc2)CC1 [Example 527, Cyclopropyl-[4-(4-quinolin-3-yl-phenylamino)-piperidin-1-yl]-methanone, HCl] |
| 100 to 999 nM | CCC(=O)N1CCC(Oc2ccc(-c3ccc4cccnc4c3NC)cc2)CC1 [Example 326, 1-{4-[4-(8-Methylaminoquinolin-7-yl)-phenoxy]-piperidin-1-yl}-propan-1-one] |
| 1000 to 10000 nM | CC(C)C(=O)N1CCC(Oc2ccc(-c3ccc4cccnc4c3)cn2)CC1 [Example 136, 2-Methyl-1-[4-(5-quinolin-7-yl-pyridin-2-yloxy)-piperidin-1-yl]-propan-1-one, HCl] |
| 1000 to 10000 nM | Cc1c(-c2ccc(O[C@H]3CCN(C(=O)C4CC4)C[C@H]3F)cc2)ccc2cccnc12 (relative stereo) [Example 368, Cyclopropyl-{cis-3-fluoro-4-[4-(8-methylquinolin-7-yl)-phenoxy]-piperidin-1-yl}-methanone, HCl] |
| 1 to 99 nM | CCC(=O)N1CCC(Oc2ccc(-c3ccc4c(C)nccc4c3)cc2)CC1 [Example 425, 1-{4-[4-(1-Methylisoquinolin-6-yl)-phenoxy]-piperidin-1-yl}-propan-1-one] |
| 1 to 99 nM | COCC(=O)N1CCC(Oc2ccc(-c3cnc4ccccc4c3)cc2)CC1 [Example 105] |
| 1 to 99 nM | O=C([C@H]1CCCO1)N1CCC(Oc2ccc(-c3cnc4ccccc4c3)cc2)CC1 [Example 103, [4-(4-Quinolin-3-yl-phenoxy)-piperidin-1-yl]-(R)-tetrahydrofuran-2-yl-methanone, HCl] |
| 1 to 99 nM | O=C([C@H]1CCCO1)N1CCC(Oc2ccc(-c3ccc4c(Cl)nccc4c3)cc2)CC1 [Example 429, {4-[4-(1-Chloroisoquinolin-6-yl)-phenoxy]-piperidin-1-yl}-(R)-tetrahydro-furan-2-yl-methanone] |
| 100 to 999 nM | CN1CCN(CCOc2c(-c3ccc(OC4CCN(C(=O)[C@H]5CCCO5)CC4)cc3)ccc3cccnc23)CC1 [Example 185, [4-[4-[8-[2-(4-Methylpiperazin-1-yl)ethoxy]-7-quinolyl]phenoxy]-1-piperidyl]-[(2R)-tetrahydrofuran-2-yl]methanone, HCl] |
| 1 to 99 nM | Cc1ccc2ncc(-c3ccc(OC4CCN(C(=O)[C@H]5CCCO5)CC4)cc3)cc2c1 [Example 485, {4-[4-(6-Methylquinolin-3-yl)-phenoxy]-piperidin-1-yl}-(R)-tetrahydro-furan-2-yl-methanone, HCl] |
| 1 to 99 nM | Cc1c(-c2ccc(OC3CCN(C(=O)N(C)C)CC3)cc2)ccc2cccnc12 [Example 89, N,N-dimethyl-4-[4-(8-methyl-7-quinolyl)phenoxy]piperidine-1-carboxamide] |
| 100 to 999 nM | O=C([C@H]1CCCO1)N1CCC(Oc2ccc(-c3ccc4cccnc4c3OCCCN3CCCC3)cc2)CC1 [Example 184, (4-{4-[8-(3-Pyrrolidin-1-yl-propoxy)-quinolin-7-yl]-phenoxy}-piperidin-1-yl)-(R)-tetrahydrofuran-2-yl-methanone, HCl] |
| 1 to 99 nM | O=C([C@H]1CCCO1)N1CCC(Oc2ccc(-c3cnc4cccc(F)c4c3)cc2)CC1 [Example 28, {4-[4-(5-Fluoroquinolin-3-yl)-phenoxy]-piperidin-1-yl}-(R)-tetrahydrofuran-2-yl-methanone] |
| 1000 to 10000 nM | CCC(=O)N1CCC(Oc2ccc(-c3cnc4ccccc4c3)cn2)CC1 [Example 132, 1-[4-(5-Quinolin-3-yl-pyridin-2-yloxy)-piperidin-1-yl]-propan-1-one, HCl] |
| 100 to 999 nM | O=C(C1CCC1)N1CCC(Oc2ccc(-c3ccc(-c4ccccc4)nc3)cc2)CC1 [Example 381, Cyclobutyl-{4-[4-(6-phenyl-pyridin-3-yl)-phenoxy]-piperidin-1-yl}-methanone] |
| 1000 to 10000 nM | Cc1c(-c2ccc(OC3CCN(C(=O)NC(C)C)CC3)cc2)ccc2cccnc12 [Example 92, N-Isopropyl-4-[4-(8-methyl-7-quinolyl)phenoxy]piperidine-1-carboxamide] |
| 100 to 999 nM | CCC(=O)N1CCC(Oc2ccc(-c3c(C)ccc4ncccc34)cc2)CC1 [Example 350, 1-(4-(4-(6-Methylquinolin-5-yl)phenoxy)piperidin-1-yl)propan-1-one HCl] |
